Earlier results, collected in US20050165089A1, “Compounds, compositions and methods” (priority 2003, published 2005).

System: A549 cells

GI50 [nM]	Compound
1000	O=c1[nH]cc(F)c(=O)[nH]1 [5-fluorouracil]
63	COc1cccc2c1C(=O)c1c(O)c3c(c(O)c1C2=O)C[C@@](O)(C(=O)CO)C[C@@H]3O[C@H]1C[C@H](N)[C@H](O)[C@H](C)O1 [doxorubicin]
500000	NC(=O)NO [hydroxyurea]
4	CC(=O)O[C@H]1C(=O)[C@@]2(C)[C@H]([C@H](OC(=O)c3ccccc3)[C@]3(O)C[C@H](OC(=O)[C@H](O)[C@@H](NC(=O)c4ccccc4)c4ccccc4)C(C)=C1C3(C)C)[C@]1(OC(C)=O)CO[C@@H]1C[C@@H]2O [paclitaxel]
